Read-outs that look alike come from different tables or passages of the source.
Molecular target: human α7 nAChR (Homo sapiens, UniProt P36544)
Test: Automated patch-clamp electrophysiology functional assay (Assay A)
Type: cell-based
Conditions: IonFlux HT whole-cell population patch, HEK cell line stably expressing human RIC-3 and human α7, 40 μM acetylcholine
Outline: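 Whole-cell population patch clamp at room temperature on HEK cells stably expressing human α7 and RIC-3, held at −60 mV. Compounds tested at three ascending concentrations per recording, with or without 40 μM acetylcholine; currents quantified relative to an initial 1 s 40 μM acetylcholine response; EC50 from concentration series.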

Sequence of human α7 nAChR (P36544 23-502): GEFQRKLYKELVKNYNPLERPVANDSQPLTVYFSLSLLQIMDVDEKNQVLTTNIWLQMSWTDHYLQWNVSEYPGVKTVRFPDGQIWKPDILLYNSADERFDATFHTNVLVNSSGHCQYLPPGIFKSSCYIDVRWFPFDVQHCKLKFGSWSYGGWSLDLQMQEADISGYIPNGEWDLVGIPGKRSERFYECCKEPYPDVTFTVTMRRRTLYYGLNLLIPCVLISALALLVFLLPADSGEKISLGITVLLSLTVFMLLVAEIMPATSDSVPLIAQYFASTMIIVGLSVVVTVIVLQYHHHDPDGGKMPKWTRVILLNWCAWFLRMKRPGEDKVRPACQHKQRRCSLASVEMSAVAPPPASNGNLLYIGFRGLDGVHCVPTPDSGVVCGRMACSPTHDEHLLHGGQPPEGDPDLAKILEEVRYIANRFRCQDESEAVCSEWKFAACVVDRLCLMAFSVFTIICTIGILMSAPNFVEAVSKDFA

| EC50 (read-out: α7 nAChR EC50) | EC50 (read-out: α7 nAChR Potency) | Compound |
| --- | --- | --- |
| 480 nM | 100 to 500 nM | CC1(C)[C@@H](c2ccc(S(N)(=O)=O)nc2)[C@@H]1c1nnc(-c2ccc(F)cc2F)s1 (relative stereo) [Example 2, 5-{trans-3-[5-(2,4-Difluorophenyl)-1,3,4-thiadiazol-2-yl]-2,2-dimethylcyclopropyl}pyridine-2-sulfonamide] |
| – | 500 to 5000 nM | CC1(C)[C@H](c2ccc(S(N)(=O)=O)nc2)[C@H]1c1nc(CC2CC2)no1 [Example A13, 5-{(1R,3R)-3-[3-(Cyclopropylmethyl)-1,2,4-oxadiazol-5-yl]-2,2-dimethylcyclopropyl}pyridine-2-sulfonamide] |
| 360 nM | 100 to 500 nM | CC1(C)[C@@H](c2nc(-c3ccccc3)no2)[C@@H]1c1ncc(S(N)(=O)=O)s1 (racemic) [Example D4, 2-[trans-2,2-Dimethyl-3-(3-phenyl-1,2,4-oxadiazol-5-yl)cyclopropyl]-1,3-thiazole-5-sulfonamide] |
| 400 nM | 100 to 500 nM | NS(=O)(=O)c1ccc(C2CC2c2nc(-c3ccccc3)no2)cn1 (single isomer, unassigned) [Example 4, 5-[trans-2-(3-Phenyl-1,2,4-oxadiazol-5-yl)cyclopropyl]pyridine-2-sulfonamide] |
| 1600 nM | 500 to 5000 nM | CC(C)(C)c1noc([C@H]2[C@H](c3ccc(S(N)(=O)=O)nc3)C2(C)C)n1 [Example B12, 5-[(1S,3S)-3-(3-tert-Butyl-1,2,4-oxadiazol-5-yl)-2,2-dimethylcyclopropyl]pyridine-2-sulfonamide] |
| 1500 nM | 500 to 5000 nM | CC1(C)[C@@H](c2ccc(S(N)(=O)=O)cn2)[C@@H]1c1nc(CC2CC2)no1 [Example F7, 6-{(1S,3S)-3-[3-(Cyclopropylmethyl)-1,2,4-oxadiazol-5-yl]-2,2-dimethylcyclopropyl}pyridine-3-sulfonamide] |
| – | 500 to 5000 nM | CC(C)(C)c1noc([C@H]2[C@H](c3ccc(S(N)(=O)=O)cn3)C2(C)C)n1 [Example F9, 6-[(1S,3S)-3-(3-tert-Butyl-1,2,4-oxadiazol-5-yl)-2,2-dimethylcyclopropyl]pyridine-3-sulfonamide] |
| 2700 nM | 500 to 5000 nM | CC1(C)[C@@H](c2ccc(S(N)(=O)=O)cn2)[C@@H]1c1nc(-c2cccc(C(F)(F)F)c2)no1 [Example F6, 6-[(1S,3S)-2,2-Dimethyl-3-{3-[3-(trifluoromethyl)phenyl]-1,2,4-oxadiazol-5-yl}cyclopropyl]pyridine-3-sulfonamide] |
| 720 nM | 500 to 5000 nM | CC1(C)[C@H](c2ccc(S(N)(=O)=O)nc2)[C@H]1c1ncc(C2CCCC2)s1 [Example 9, 5-[(1R,3R)-3-(5-Cyclopentyl-1,3-thiazol-2-yl)-2,2-dimethylcyclopropyl]pyridine-2-sulfonamide] |
| 620 nM | 500 to 5000 nM | CC1(C)[C@@H](c2ccc(S(N)(=O)=O)nc2)[C@@H]1c1nc(C2CCC2)no1 [Example B9, 5-[(1S,3S)-3-(3-Cyclobutyl-1,2,4-oxadiazol-5-yl)-2,2-dimethylcyclopropyl]pyridine-2-sulfonamide] |
| – | 500 to 5000 nM | CC1(C)[C@H](c2ccc(S(N)(=O)=O)nc2)[C@H]1c1nc(C2CCC2)no1 [Example A12, 5-[(1R,3R)-3-(3-Cyclobutyl-1,2,4-oxadiazol-5-yl)-2,2-dimethylcyclopropyl]pyridine-2-sulfonamide] |
| 1100 nM | 500 to 5000 nM | CC1(C)[C@@H](c2ccc(S(N)(=O)=O)nc2)[C@@H]1c1cc(C2CCCC2)no1 (relative stereo) [Example 12, 5-[trans-3-(3-Cyclopentylisoxazol-5-yl)-2,2-dimethylcyclopropyl]pyridine-2-sulfonamide] |
| 3000 nM | 500 to 5000 nM | CC1(C)[C@H](c2ccc(S(N)(=O)=O)nc2)[C@H]1c1nc(C2CC(F)(F)C2)no1 [Example A11, 5-{(1R,3R)-3-[3-(3,3-Difluorocyclobutyl)-1,2,4-oxadiazol-5-yl]-2,2-dimethylcyclopropyl}pyridine-2-sulfonamide] |
| 340 nM | 100 to 500 nM | CC1(C)[C@@H](c2ccc(S(N)(=O)=O)cn2)[C@@H]1c1nc(C2CCCC2)no1 [Example F3, 6-[(1S,3S)-3-(3-Cyclopentyl-1,2,4-oxadiazol-5-yl)-2,2-dimethylcyclopropyl]pyridine-3-sulfonamide] |
| 2900 nM | 500 to 5000 nM | CC1(C)[C@H](c2ccc(S(N)(=O)=O)nc2)[C@H]1c1nc(C2CCCC2)no1 [Example A3, 5-[(1R,3R)-3-(3-Cyclopentyl-1,2,4-oxadiazol-5-yl)-2,2-dimethylcyclopropyl]pyridine-2-sulfonamide] |
| 580 nM | 500 to 5000 nM | CC1(C)[C@@H](c2ccc(S(N)(=O)=O)nc2)[C@@H]1c1noc(-c2c(F)ccc(F)c2F)n1 (racemic) [Example C1, 5-{trans-2,2-Dimethyl-3-[5-(2,3,6-trifluorophenyl)-1,2,4-oxadiazol-3-yl]cyclopropyl}pyridine-2-sulfonamide] |
| 1700 nM | 500 to 5000 nM | CC1(C)[C@H](c2nc(-c3ccccc3)no2)[C@H]1c1ncc(S(N)(=O)=O)s1 [Example D9, 2-[(1R,3R)-2,2-Dimethyl-3-(3-phenyl-1,2,4-oxadiazol-5-yl)cyclopropyl]-1,3-thiazole-5-sulfonamide] |
| – | 5000 to 50000 nM | CC1(C)[C@@H](c2nc(C3CC(F)(F)C3)no2)[C@@H]1c1ncc(S(N)(=O)=O)s1 (racemic) [Example D6, 2-{trans-3-[3-(3,3-Difluorocyclobutyl)-1,2,4-oxadiazol-5-yl]-2,2-dimethylcyclopropyl}-1,3-thiazole-5-sulfonamide] |
| 1500 nM | 500 to 5000 nM | CC1(C)[C@@H](c2ccc(S(N)(=O)=O)nc2)[C@@H]1c1noc(C2(C(F)(F)F)CC2)n1 (racemic) [Example C11, 5-(trans-2,2-Dimethyl-3-{5-[1-(trifluoromethyl)cyclopropyl]-1,2,4-oxadiazol-3-yl}cyclopropyl)pyridine-2-sulfonamide] |
| 1000 nM | 500 to 5000 nM | NS(=O)(=O)c1cnc([C@@H]2C[C@H]2c2nc(-c3ccccc3)no2)s1 (racemic) [Example D8, 2-[trans-2-(3-Phenyl-1,2,4-oxadiazol-5-yl)cyclopropyl]-1,3-thiazole-5-sulfonamide] |
| 640 nM | 500 to 5000 nM | CC1(C)[C@H](c2ccc(S(N)(=O)=O)nc2)[C@H]1c1nc(C2CCCCC2)no1 [Example 7, 5-[(1R,3R)-3-(3-Cyclohexyl-1,2,4-oxadiazol-5-yl)-2,2-dimethylcyclopropyl]pyridine-2-sulfonamide] |
| 1900 nM | 500 to 5000 nM | CC1(C)[C@@H](c2ccc(S(N)(=O)=O)cn2)[C@@H]1c1nc(C2CC(F)(F)C2)no1 [Example F12, 6-{(1S,3S)-3-[3-(3,3-Difluorocyclobutyl)-1,2,4-oxadiazol-5-yl]-2,2-dimethylcyclopropyl}pyridine-3-sulfonamide] |
| 450 nM | 100 to 500 nM | CC1(C)C(c2ccc(S(N)(=O)=O)nc2)C1c1nc2ccccc2o1 (single isomer, unassigned) [Example 1, 5-[trans-3-(1,3-Benzoxazol-2-yl)-2,2-dimethylcyclopropyl]pyridine-2-sulfonamide] |
| – | 500 to 5000 nM | CC1(C)[C@@H](c2ccc(S(N)(=O)=O)nc2)[C@@H]1c1nc(C2CC2)no1 [Example B11, 5-[(1S,3S)-3-(3-Cyclopropyl-1,2,4-oxadiazol-5-yl)-2,2-dimethylcyclopropyl]pyridine-2-sulfonamide] |
| – | 500 to 5000 nM | CC1(C)[C@@H](c2ccc(S(N)(=O)=O)cn2)[C@@H]1c1nc(C2CCC2)no1 [Example F13, 6-[(1S,3S)-3-(3-Cyclobutyl-1,2,4-oxadiazol-5-yl)-2,2-dimethylcyclopropyl]pyridine-3-sulfonamide] |
| – | 100 to 500 nM | CC1(C)[C@@H](c2ccc(S(N)(=O)=O)nc2)[C@@H]1c1nc(C2CCCCC2)no1 [Example B6, 5-[(1S,3S)-3-(3-Cyclohexyl-1,2,4-oxadiazol-5-yl)-2,2-dimethylcyclopropyl]pyridine-2-sulfonamide] |
| 770 nM | 500 to 5000 nM | CC1(C)C(c2ccc(S(N)(=O)=O)nc2)C1c1cc(-c2cccc(F)c2)on1 (single isomer, unassigned) [Example 13, 5-{trans-3-[5-(3-Fluorophenyl)isoxazol-3-yl]-2,2-dimethylcyclopropyl}pyridine-2-sulfonamide] |

| Compound | EC50 (read-out: α7 nAChR EC50) | EC50 (read-out: α7 nAChR Potency) |
| --- | --- | --- |
| CC1(C)[C@@H](c2ccc(S(N)(=O)=O)cn2)[C@@H]1c1nc(-c2cncc(F)c2)no1 [Example F11, 6-{(1S,3S)-3-[3-(5-Fluoropyridin-3-yl)-1,2,4-oxadiazol-5-yl]-2,2-dimethylcyclopropyl}pyridine-3-sulfonamide] | 3400 nM | 500 to 5000 nM |
| CC1(C)[C@@H](c2ccc(S(N)(=O)=O)cn2)[C@@H]1c1nc(-c2ccccc2)no1 [Example F10, 6-[(1S,3S)-2,2-Dimethyl-3-(3-phenyl-1,2,4-oxadiazol-5-yl)cyclopropyl]pyridine-3-sulfonamide] | 1100 nM | 500 to 5000 nM |
